Data as given in patent US8759535B2, “Substituted fused imidazole derivatives, pharmaceutical compositions, and methods of use thereof” (High Point Pharmaceuticals, LLC, priority 2010, dated 2014).
Counter-ions that a name gives are not always drawn.

System: HMOX1
Assay: HMOX1 Protein Assay (immunostaining of HO-1 in NHLF cells, GE InCell 1000)
Assay type: cell-based
Conditions: Homo sapiens, fold change above DMSO treated cells, 5 μM compound, 16 h
In short: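 NHLF cells seeded overnight in FGM-2, then exposed to compound or DMSO vehicle for 16 h, fixed, and immunostained for HO-1 with Hoechst nuclear counterstain; imaged on InCell 1000. Values are fold change over DMSO-treated cells, generally at 5 μM (0.8% DMSO), with asterisked entries at 3 μM.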

CCNC(=O)c1ccc2c(c1)nc(Nc1nc3ccc(Cl)cc3s1)n2C [Example 32, 2-(6-Chloro-benzothiazol-2-ylamino)-1-methyl-1H-benzoimidazole-5-carboxylic acid ethylamide] was tested. Which fold induction at 5 µM did it give?
The fold induction at 5 µM was 12.6.

For CN(C)CCNC(=O)c1ccc2c(c1)nc(Nc1nc3ccc(OC(F)(F)F)cc3s1)n2C [Example 82, 1-Methyl-2-(6-trifluoromethoxy-benzothiazol-2-ylamino)-1H-benzoimidazole-5-carboxylic acid (2-dimethylamino-ethyl)-amide], which fold induction at 5 µM is on record?
Its fold induction at 5 µM is 17.

Cn1c(Nc2nc3ccc(OC(F)(F)F)cc3s2)nc2cc(C(=O)NCCS(C)(=O)=O)ccc21 [Example 102, 1-Methyl-2-(6-trifluoromethoxy-benzothiazol-2-ylamino)-1H-benzoimidazole-5-carboxylic acid (2-methanesulfonyl-ethyl)-amide] was tested. Which fold induction at 5 µM did it give?
Its fold induction at 5 µM is 22.6.

Which fold induction at 5 µM does the source give for Cn1c(Nc2nc3ccc(OC(F)(F)F)cc3s2)nc2cc(C(=O)NCCn3cccn3)ccc21 [Example 328, 1-Methyl-2-(6-trifluoromethoxy-benzothiazol-2-ylamino)-1H-benzoimidazole-5-carboxylic acid (2-pyrazol-1-yl-ethyl)-amide] here?
The fold induction at 5 µM was 29.4.

How did the fold induction at 5 µM turn out when Cn1c(Nc2nc3ccc(Cl)cc3s2)nc2cc(C(=O)NCCC#N)ccc21 [Example 213, 2-(6-Chloro-benzothiazol-2-ylamino)-1-methyl-1H-benzoimidazole-5-carboxylic acid (2-cyano-ethyl)-amide] was run?
Its fold induction at 5 µM is 48.6.

How did the fold induction at 5 µM turn out when Cn1c(Nc2nc3ccc(Cl)cc3s2)nc2cc(C(=O)NCC(=O)N3CC[C@H](N)C3)ccc21 [Example 411, 2-(6-Chloro-benzothiazol-2-ylamino)-1-methyl-1H-benzoimidazole-5-carboxylic acid [2-((S)-3-amino-pyrrolidin-1-yl)-2-oxo-ethyl]-amide hydrochloride] was run?
Its fold induction at 5 µM is 16.

CN(C(=O)CNC(=O)c1ccc2c(c1)nc(Nc1nc3ccc(Cl)cc3s1)n2C)C1CCOCC1 [Example 393, 2-(6-Chloro-benzothiazol-2-ylamino)-1-methyl-1H-benzoimidazole-5-carboxylic acid {[methyl-(tetrahydro-pyran-4-yl)-carbamoyl]-methyl}-amide] was tested. Which fold induction at 5 µM did it give?
Its fold induction at 5 µM is 61.3.

Cn1c(Nc2nc3ccc(Cl)cc3s2)nc2cc(C(=O)NC3CCN(S(C)(=O)=O)CC3)ccc21 [Example 320, 2-(6-Chloro-benzothiazol-2-ylamino)-1-methyl-1H-benzoimidazole-5-carboxylic acid (1-methanesulfonyl-piperidin-4-yl)-amide] was tested. Which fold induction at 5 µM did it give?
Its fold induction at 5 µM is 20.

Which fold induction at 5 µM does the source give for Cn1c(Nc2nc3ccc(Cl)cc3s2)nc2cc(C(=O)NCC(=O)N3CCN(S(C)(=O)=O)CC3)ccc21 [Example 429, 2-(6-Chloro-benzothiazol-2-ylamino)-1-methyl-1H-benzoimidazole-5-carboxylic acid [2-(4-methanesulfonyl-piperazin-1-yl)-2-oxo-ethyl]-amide] here?
The fold induction at 5 µM was 21.4.

With Cn1c(Nc2nc3ccc(OC(F)(F)F)cc3s2)nc2cc(C(=O)NCCOC(F)(F)F)ccc21 [Example 44, 1-Methyl-2-(6-trifluoromethoxy-benzothiazol-2-ylamino)-1H-benzoimidazole-5-carboxylic acid (2-trifluoromethoxy-ethyl)-amide] as the molecule, how does the fold induction at 5 µM read?
The fold induction at 5 µM was 12.1.

How did the fold induction at 5 µM turn out when COCCNC(=O)c1ccc2c(c1)nc(Nc1nc3ccc(OC(F)(F)F)cc3s1)n2C [Example 8, 1-Methyl-2-(6-trifluoromethoxy-benzothiazol-2-ylamino)-1H-benzoimidazole-5-carboxylic acid (2-methoxy-ethyl)-amide] was run?
Its fold induction at 5 µM is 18.3.

How did the fold induction at 5 µM turn out when CCOCCNC(=O)c1ccc2c(c1)nc(Nc1nc3ccc(OC(F)(F)F)cc3s1)n2CCF [Example 172, 1-(2-Fluoro-ethyl)-2-(6-trifluoromethoxy-benzothiazol-2-ylamino)-1H-benzoimidazole-5-carboxylic acid (2-ethoxy-ethyl)-amide] was run?
The fold induction at 5 µM was 21.4.

For Cn1c(Nc2nc3ccc(OC(F)(F)F)cc3s2)nc2cc(C(=O)NCC(=O)NCc3ccc(O)cc3)ccc21 [Example 389, 1-Methyl-2-(6-trifluoromethoxy-benzothiazol-2-ylamino)-1H-benzoimidazole-5-carboxylic acid [(4-hydroxy-benzylcarbamoyl)-methyl]-amide], which fold induction at 5 µM is on record?
Its fold induction at 5 µM is 38.6.

Which fold induction at 5 µM does the source give for Cn1c(Nc2nc3cc(F)ccc3s2)nc2cc(C(=O)O)ccc21 [Example 117, 2-(5-Fluoro-benzothiazol-2-ylamino)-1-methyl-1H-benzimidazole-5-carboxylic acid] here?
Its fold induction at 5 µM is 28.8.

For Cn1c(Nc2nc3ccc(OC(F)(F)F)cc3s2)nc2cc(-c3ncc[nH]3)ccc21 [Example 196, [5-(1H-Imidazol-2-yl)-1-methyl-1H-benzimidazol-2-yl]-(6-trifluoromethoxy-benzothiazol-2-yl)-amine], which fold induction at 5 µM is on record?
Its fold induction at 5 µM is 11.4.

Cn1c(Nc2nc3ccc(OC(F)(F)F)cc3s2)nc2cc(S(C)(=O)=O)ccc21 [Example 201, (5-Methanesulfonyl-1-methyl-1H-benzoimidazol-2-yl)-(6-trifluoromethoxy-benzothiazol-2-yl)-amine] was tested. Which fold induction at 5 µM did it give?
The fold induction at 5 µM was 26.5.

Which fold induction at 5 µM does the source give for CNC(=O)c1ccc2c(c1)nc(Nc1nc3ccc(C(F)(F)F)cc3s1)n2C [Example 84, 1-Methyl-2-(6-trifluoromethyl-benzothiazol-2-ylamino)-1H-benzoimidazole-5-carboxylic acid methylamide] here?
The fold induction at 5 µM was 19.

With COC(=O)c1ccc2c(c1)nc(Nc1nc3ccc(OC(F)(F)F)cc3s1)n2C(C)C [Example 158, 1-Isopropyl-2-(6-trifluoromethoxy-benzothiazol-2-ylamino)-1H-benzoimidazole-5-carboxylic acid methyl ester] as the molecule, how does the fold induction at 5 µM read?
Its fold induction at 5 µM is 1.7.

With Cn1c(Nc2nc3ccc(OC(F)(F)F)cc3s2)nc2cc(C(=O)NCCF)ccc21 [Example 9, 1-Methyl-2-(6-trifluoromethoxy-benzothiazol-2-ylamino)-1H-benzoimidazole-5-carboxylic acid (2-fluoro-ethyl)-amide] as the molecule, how does the fold induction at 5 µM read?
Its fold induction at 5 µM is 11.2.

With COCCn1c(Nc2nc3ccc(Cl)cc3s2)nc2cc(C(=O)NCC(=O)N3CC[C@H](O)C3)ccc21 [Example 405, 2-(6-Chloro-benzothiazol-2-ylamino)-1-(2-methoxy-ethyl)-1H-benzoimidazole-5-carboxylic acid [2-((S)-3-hydroxy-pyrrolidin-1-yl)-2-oxo-ethyl]-amide] as the molecule, how does the fold induction at 5 µM read?
The fold induction at 5 µM was 21.4.

Which fold induction at 5 µM does the source give for CN1CCC(NC(=O)CNC(=O)c2ccc3c(c2)nc(Nc2nc4ccc(Cl)cc4s2)n3C)CC1 [Example 386, 2-(6-Chloro-benzothiazol-2-ylamino)-1-methyl-1H-benzoimidazole-5-carboxylic acid [(1-methyl-piperidin-4-ylcarbamoyl)-methyl]-amide] here?
Its fold induction at 5 µM is 58.3.

With COCCn1c(Nc2nc3ccc(Cl)cc3s2)nc2cc(C(=O)NCC(=O)N3CCC(CO)CC3)ccc21 [Example 443, 2-(6-Chloro-benzothiazol-2-ylamino)-1-(2-methoxy-ethyl)-1H-benzoimidazole-5-carboxylic acid [2-(4-hydroxymethyl-piperidin-1-yl)-2-oxo-ethyl]-amide] as the molecule, how does the fold induction at 5 µM read?
Its fold induction at 5 µM is 39.8.

For Cn1c(Nc2nc3ccc(OC(F)(F)F)cc3s2)nc2cc(C(=O)NC(C)(C)C(=O)O)ccc21 [Example 148, 2-Methyl-2-{[1-methyl-2-(6-trifluoromethoxy-benzothiazol-2-ylamino)-1H-benzimidazole-5-carbonyl]-amino}-propionic acid], which fold induction at 5 µM is on record?
The fold induction at 5 µM was 12.
